Laboratory results reported in ChEMBL document CHEMBL5625243, “Computational methods to analyze and predict the binding mode of inhibitors targeting both human and mushroom tyrosinase” (Eur J Med Chem, 2023).
The source made the active and inactive calls. No cut-off for these calls is given here.

Experiments:
Tyrosinase [1] = molecular target: T1, Tyrosinase (Homo sapiens, UniProt P14679); experiment: Inhibition of human tyrosinase using L-DOPA as substrate by spectrophotometer analysis
T1 sequence (P14679 whole entry): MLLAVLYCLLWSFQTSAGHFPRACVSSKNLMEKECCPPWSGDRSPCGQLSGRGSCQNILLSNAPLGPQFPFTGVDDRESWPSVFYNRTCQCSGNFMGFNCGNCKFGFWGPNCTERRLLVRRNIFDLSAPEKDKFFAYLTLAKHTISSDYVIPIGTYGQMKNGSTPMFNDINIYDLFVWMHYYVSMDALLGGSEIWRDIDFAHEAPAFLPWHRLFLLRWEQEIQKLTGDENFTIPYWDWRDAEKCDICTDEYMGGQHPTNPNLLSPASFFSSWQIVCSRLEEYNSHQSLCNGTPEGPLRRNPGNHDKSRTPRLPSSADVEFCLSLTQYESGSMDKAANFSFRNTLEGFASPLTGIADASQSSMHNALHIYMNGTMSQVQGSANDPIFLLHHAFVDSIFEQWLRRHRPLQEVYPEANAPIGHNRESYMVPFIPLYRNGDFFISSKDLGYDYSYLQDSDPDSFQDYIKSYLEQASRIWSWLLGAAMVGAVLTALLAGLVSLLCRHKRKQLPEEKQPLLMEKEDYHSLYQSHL

[2] = molecular target: Mushroom tyrosinase (Agaricus bisporus) (UniProt O42713+Q00024+C7FF04+C7FF05); experiment: Binding affinity to mushroom tyrosinase assessed as gibbs free energy change by MM-GBSA method; format: protein assay
[3] = molecular target: T2, Tyrosinase (Homo sapiens) (UniProt P14679); experiment: Binding affinity to human Tyrosinase assessed as gibbs free energy change by MM-GBSA method
T2 sequence (whole entry): T1 sequence (P14679 whole entry)

Tyrosinase [4] = molecular target: T1, Tyrosinase; experiment: Binding affinity to human tyrosinase using l-DOPA as substrate assessed as inhibition constant by Michaelis-Menten plot analysis
[5] = molecular target: T2, Tyrosinase (Homo sapiens); experiment: Competitive inhibition of human tyrosinase using L-DOPA substrate upto 2.08 uM by Lineweaver-Burk plot analysis
Mushroom tyrosinase [6] = molecular target: T3, Mushroom tyrosinase (Agaricus bisporus, UniProt O42713+Q00024+C7FF04+C7FF05); experiment: Inhibition of mushroom tyrosinase using L-DOPA as substrate; format: protein assay
Mushroom tyrosinase [7] = molecular target: T3, Mushroom tyrosinase; experiment: Inhibition of mushroom tyrosinase using L-DOPA as substrate by spectrophotometer analysis; format: protein assay

O=C(CN1CCC(Cc2ccccc2)CC1)N1CCN(c2ccc(O)cc2)CC1
IC50 (Tyrosinase [1]): 1100 µM
deltaG [2]: -4.54 kcal/mol
deltaG [3]: 0 kcal/mol

COc1ccccc1C(=O)N1CCN(c2ccc(O)cc2)CC1
IC50 (Tyrosinase [1]): 5.4 µM
Ki (Tyrosinase [4]): 1.02 µM
inhibition [5]: Active
IC50 (Mushroom tyrosinase [6]): 3.52 µM

CC(C)C(=O)Nc1nc(-c2ccc(O)cc2O)cs1
IC50 (Tyrosinase [1]): 3.8 µM
Ki (Tyrosinase [4]): 0.92 µM
deltaG [2]: 3.34 kcal/mol
deltaG [3]: -14.8 kcal/mol
IC50 (Mushroom tyrosinase [7]): 108 µM
